ChEMBL document CHEMBL1201862, “PubChem BioAssay data set” (2004)
“And” between values parts separate entries of the source, which are not always exact repeats. Equal values may be shown once.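 Each compound was tested at five concentrations against cells in 96-well plates for 48 hours. GI50: concentration for 50% inhibition of growth.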 The source made the active and inactive calls. Cut-off read from the data, not from the text of the source: active = GI50 up to about 1.1 µM and inactive = higher.

Assays:
Assay in all cases: growth of human tumour cells (NCI), 48 h
HOP-62 = test system: HOP-62
A549 = test system: A549
HT-29 = test system: HT-29
ACHN = test system: ACHN
M14 = test system: M14
SNB-75 = test system: SNB-75
MDA-N = test system: MDA-N
NCI-H522 = test system: NCI-H522
RPMI-8226 = test system: RPMI-8226
LOX IMVI = test system: LOX IMVI
MCF7 = test system: MCF7
NCI-H23 = test system: NCI-H23
SK-MEL-28 = test system: SK-MEL-28
COLO 205 = test system: COLO 205
OVCAR-8 = test system: OVCAR-8
UACC-62 = test system: UACC-62
Hs-578T = test system: Hs-578T
HOP-92 = test system: HOP-92
UACC-257 = test system: UACC-257

Measured: GI50

Cn1c2ccccc2n2c3ncccc3/c(=N/CCCC(=O)O)c(C#N)c12
inactive: HOP-62 > 100 µM | A549 > 100 µM | HT-29 > 100 µM | ACHN > 100 µM | M14 > 100 µM | SNB-75 > 100 µM | MDA-N > 100 µM | NCI-H522 > 100 µM | RPMI-8226 > 100 µM | LOX IMVI > 100 µM | MCF7 > 100 µM | NCI-H23 > 100 µM | SK-MEL-28 > 100 µM | COLO 205 > 100 µM | OVCAR-8 > 100 µM | UACC-62 > 100 µM | Hs-578T > 100 µM

Cc1ccc(S(=O)(=O)SC/C=C\CSS(=O)(=O)c2ccc(C)cc2)cc1
inactive: HOP-62 49.2 µM and 35.9 µM | A549 31.5 µM and 35.7 µM | ACHN 29.6 µM and 25.1 µM | M14 13.8 µM and 17.4 µM | SNB-75 19.1 µM and 36.6 µM | MDA-N 14.4 µM | MCF7 3.51 µM | NCI-H23 16.6 µM and 12.4 µM | HOP-92 14.4 µM and 16.2 µM | OVCAR-8 18.9 µM and 13.3 µM | UACC-62 17.6 µM and 20.9 µM | Hs-578T 67 µM

CN(C)CCNC(=O)Cn1cnc2cccc([N+](=O)[O-])c2c1=O
inactive: HOP-62 > 100 µM | A549 > 100 µM | HT-29 > 100 µM | ACHN > 100 µM | M14 > 100 µM | UACC-257 > 100 µM | MDA-N > 100 µM | NCI-H522 > 100 µM | RPMI-8226 > 100 µM | LOX IMVI > 100 µM | MCF7 > 100 µM | NCI-H23 > 100 µM | SK-MEL-28 > 100 µM | COLO 205 > 100 µM | UACC-62 > 100 µM | Hs-578T > 100 µM

O=C(O)CCC(/N=C(\C(=N\C(CCC(=O)O)C(=O)O)c1ccccc1)c1ccccc1)C(=O)O (centres undefined)
inactive: HOP-62 > 100 µM | A549 > 100 µM | ACHN > 100 µM | M14 > 100 µM | SNB-75 > 100 µM | UACC-257 > 100 µM | MDA-N > 100 µM | RPMI-8226 > 100 µM | LOX IMVI > 100 µM | MCF7 > 100 µM | NCI-H23 > 100 µM | SK-MEL-28 > 100 µM | COLO 205 > 100 µM | OVCAR-8 > 100 µM | UACC-62 > 100 µM | Hs-578T > 100 µM

O=c1[nH]c(=O)n(C2CC(O)C(CO)O2)cc1OCc1ccccc1 (centres undefined)
inactive: HOP-62 > 100 µM | A549 > 100 µM | HT-29 > 100 µM | ACHN > 100 µM | M14 > 100 µM | SNB-75 > 100 µM | UACC-257 > 100 µM | MDA-N > 100 µM | NCI-H522 > 100 µM | RPMI-8226 > 100 µM | LOX IMVI > 100 µM | MCF7 > 100 µM | NCI-H23 > 100 µM | SK-MEL-28 > 100 µM | COLO 205 > 100 µM | OVCAR-8 > 100 µM | UACC-62 > 100 µM | Hs-578T > 100 µM

CCCC/N=C(/c1ccccc1)N1CCOCC1
inactive: HOP-62 > 100 µM | HT-29 > 100 µM | ACHN > 100 µM | M14 > 100 µM | SNB-75 1.25 µM | UACC-257 > 100 µM | MDA-N > 100 µM | RPMI-8226 > 100 µM | LOX IMVI > 100 µM | MCF7 > 100 µM | NCI-H23 > 100 µM | SK-MEL-28 > 100 µM | COLO 205 > 100 µM | OVCAR-8 > 100 µM | UACC-62 > 100 µM | Hs-578T 87.1 µM

O=[N+]([O-])c1ccc(OP(=O)(O)OCC2OC(CP(=O)(O)O)C(O)C2O)cc1 (centres undefined)
inactive: HOP-62 > 100 µM | A549 > 100 µM | HT-29 > 100 µM | ACHN > 100 µM | M14 > 100 µM | UACC-257 > 100 µM | MDA-N > 100 µM | NCI-H522 > 100 µM | LOX IMVI > 100 µM | MCF7 > 100 µM | NCI-H23 > 100 µM | SK-MEL-28 > 100 µM | COLO 205 > 100 µM | HOP-92 > 100 µM | OVCAR-8 > 100 µM | UACC-62 > 100 µM | Hs-578T > 100 µM

CC1(C)CC(=O)c2c(nc3c(ccc4ccccc43)c2-c2ccc(NC(=O)CCCCC(=O)Nc3ccc(-c4c5c(nc6c4ccc4ccccc46)CC(C)(C)CC5=O)cc3)cc2)C1
inactive: HOP-62 32.7 µM | A549 53.7 µM | HT-29 22.5 µM | ACHN 24 µM | M14 32.3 µM | SNB-75 16.3 µM | UACC-257 39.2 µM | MDA-N 26.4 µM | NCI-H522 29.5 µM | RPMI-8226 18.8 µM | LOX IMVI 17.6 µM | MCF7 32.2 µM | SK-MEL-28 34 µM | COLO 205 26.7 µM | OVCAR-8 26.1 µM | Hs-578T 32.1 µM

COC(=O)Cn1cnc2c(Cl)nc(Nc3ccccc3)nc21
inactive: HOP-62 > 100 µM | A549 79.6 µM | HT-29 > 100 µM | ACHN > 100 µM | M14 29 µM | SNB-75 > 100 µM | UACC-257 68.7 µM | MDA-N 30.8 µM | RPMI-8226 > 100 µM | LOX IMVI 17.9 µM | MCF7 76.2 µM | SK-MEL-28 27.4 µM | COLO 205 59.6 µM | OVCAR-8 25.9 µM | UACC-62 22.6 µM | Hs-578T 20.9 µM
